Consider one compound from patent publication US20030143645A1, “Quinone reductase 2 and aldehyde dehydrogenase as therapeutic targets” (priority 2001, published 2003).

Molecules are shown by their SMILES.

The test system of experiment [1] is purine binding proteome (hALDH1 and hQR2). Description: ATP affinity array / ATP-Sepharose displacement elution of RBC purine binding proteome. More on the design: species or system human. As to the method:
(§1) ATP-affinity array chromatography. In whole mouse experiments, the animal (except for its tail, feet, skin and intestines) was frozen in liquid N2 and blended in buffer A containing 50 mM Hepes, pH 7.5, 50 mM NaCl, 10 mM MgCl2, 0.1% NONIDET- P40, 1 mM dithiothreitol, 1 μg/ml leupeptin, 100 μg/ml pefabloc and 10 μg/ml aprotinin. Mouse lysate was clarified by centrifugation for 1 hr at 100,000×g. For infected and non-infected RBC's˜1.5×10^9 cells were mixed with an equal volume of 2×buffer A, rocked for 30 min at 4° C., and clarified by centrifugation for 1 hr at 100,000×g. Supernatants were dialyzed overnight against 50 mM Hepes, pH 7.5, 50 mM NaCl, 10 mM MgCl2 and 1 mM dithiothreitol. […] Proteins were resolved by 12% SDS-PAGE and visualized by staining either with Coomassie brilliant Blue R-250 or silver nitrate. Alternatively, proteins were transferred to membrane GeneMate (Kaysville, Utah) in transfer buffer (25 mM Tris, 200 mM glycine, 20% methanol, and 0.01% SDS) for mixed peptide sequencing (Damer et al, J. Biol. Chem. 273:24396 (1998)). hALDH 1 and hQR2 purification and activity assays. Fresh human red blood cells (RBC) were obtained from Valley Biomedical, washed twice with PBS, and lysed in buffer B (0.1% Triton X, 50 mM Tris pH 7.5, 125 mM NaCl, 1 μg/mL aprotonin, 1 μg/mL pepstatin and 10 μg/mL PEFABLOC). Lysates were centrifuged twice at 125,000×g for 1 hr at 4° C. Cleared supernatant was filtered through a 0.22 μM filter and loaded onto PQ-Sepharose. Pure hALDH was eluted with 5 mM NADH and pure hQR2 with 5 mM NMeN. The eluants were dialyzed overnight at 4° C. against 25 mM Tris pH 8.0 and 1 mM DTT. hALDHl was assayed as described in Table 2. Purified hQR2 was assayed at 22° C. in 100 μM N-methyldihydronicotinamide, 30 μM menadione, 0.1% Triton X-100, 50 mM Tris pH 8.5, 100 μM dicoumarol (unless stated otherwise). N-methyldihydronicotinamide was synthesized (Ortiz-Maldonado et al, Biochemistry 38(50):16636-16647 (1999)) and stored in 100 mM Tris-sulfate pH 8.0.
An ATP affinity array was charged with RBC and P. falciparum (blood stage) infected RBC extract.
chromatography. P. falciparum-infected or non-infected RBCs were lysed by mixing with an equal volume of 2×buffer A and rocking for 30 min at 4° C. 1×buffer A: 50 mM Hepes, pH 7.5, 50 mM NaCl, 10 mM MgCl2, 0.1% NONIDET-P40, 1 mM dithiothreitol, 1 μg/ml leupeptin, 100 μg/ml pefabloc and 1 μg/ml aprotinin. […] Proteins were resolved by 12% SDS-PAGE and visualized by staining with Coomassie brilliant blue R-250 or silver nitrate. Alternatively, proteins were transferred to PVM membrane (Kaysville, Utah) for mixed peptide sequencing (Damer et al, J. Biol. Chem. 273(38):24396-24405 (1998)).
To better understand the mechanism of the quinolines, an attempt was made to identify all quinoline interacting proteins in a cell or animal lysate. To achieve this, a functional proteomics approach was used as outlined in FIG. 7. In this strategy, three different, yet complementary approaches were conducted to identify and validate targets of the quinolines. In step one, termed displacement affinity chromatography, a specific sub-proteome from a cell is captured on an affinity matrix by virtue of its interaction with an immobilized ligand (FIG. 7, Step 1). The sup-proteome is captured after application of saturating amounts of cell lysate and extensive washing of the resin. The compounds of interest (in this case, the quinolines) are then applied to the matrix in parallel and allowed to interact with the bound proteome. […] In the second step, affinity matrices were created by directly linking the quinoline drugs to Sepharose, and after application of cell lysates, all proteins that specifically eluted from these matrices in the presence of drug were identified (FIG. 7 Step 2).

The target of experiment [2] is T1, ALDH1 (Homo sapiens, UniProt P00352).
T1 construct: Purification of native ALDH1, QR2 and QR1; RBC extract was prepared as described above and applied to PQ-Sepharose; tissue Valley Biomedical (blood); host or cells: human red blood cells
T1 sequence (P00352 1-501): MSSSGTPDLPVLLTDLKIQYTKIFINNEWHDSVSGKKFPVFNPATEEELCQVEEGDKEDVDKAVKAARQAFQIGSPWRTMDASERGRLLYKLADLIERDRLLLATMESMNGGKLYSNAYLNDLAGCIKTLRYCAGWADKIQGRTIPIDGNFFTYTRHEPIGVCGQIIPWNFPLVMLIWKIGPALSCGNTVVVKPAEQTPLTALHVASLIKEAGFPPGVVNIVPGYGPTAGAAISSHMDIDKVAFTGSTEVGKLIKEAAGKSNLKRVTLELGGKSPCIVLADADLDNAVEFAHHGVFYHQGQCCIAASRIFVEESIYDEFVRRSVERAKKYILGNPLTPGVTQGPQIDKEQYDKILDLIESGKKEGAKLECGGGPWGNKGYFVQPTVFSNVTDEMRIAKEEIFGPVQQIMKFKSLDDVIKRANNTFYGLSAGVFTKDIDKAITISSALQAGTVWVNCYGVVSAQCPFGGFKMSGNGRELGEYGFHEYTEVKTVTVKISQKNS
Description: hALDH1 HPLC-based activity assay (Example 1). Type of experiment: biochemical. As to the method: as §1, with “Lysates were centrifuged twice at 125,000×g for 1 hr at 4° C. Cleared supernatant was filtered through a 0.22 μM filter and loaded onto PQ-Sepharose. Pure hALDH was eluted with 5 mM NADH and pure hQR2 with 5 mM NMeN. The eluants were dialyzed overnight at 4° C. against 25 mM Tris pH 8.0 and 1 mM DTT. hALDHl was assayed as described in Table 2. Purified hQR2 was assayed at 22° C. in 100 μM N-methyldihydronicotinamide, 30 μM menadione, 0.1% Triton X-100, 50 mM Tris pH 8.5, 100 μM dicoumarol (unless stated otherwise). N-methyldihydronicotinamide was synthesized (Ortiz-Maldonado et al, Biochemistry 38(50):16636-16647 (1999)) and stored in 100 mM Tris-sulfate pH 8.0.” left out
Values for hALDH1 were determined by HPLC assay. […]

Consider `CCN(CC)CCCC(C)Nc1ccnc2cc(Cl)ccc12` (stereo not shown) [CQ, chloroquine], for which the “proteins eluted from ATP-Sepharose (ALDH1 55 kDa, QR2 26 kDa)” value in experiment [1] (RBC extract, 5 mM drug (Example 2)) is “selectively eluted proteins of 55 and 26 kDa”. Moreover, in experiment [1] (non-infected red cells, drug at [mM]), the “proteins eluted from ATP affinity array (hALDH1 and hQR2)” value is reported as “selectively eluted two proteins”. Moreover, in experiment [2] (0.5 mM CQ, ALDH alone 48.42 ± 9.3 pmol), the ALDH activity came to 26.62 ± 6.1 pmol. For the same compound, the “inhibition of hALDH1 activity” value in experiment [2] (in the presence of physiological [NADH]) is recorded as “relatively weak inhibitor”.
